These results are taken from US20040259173A1, “Method of determining target protein of drug” (priority 2001, published 2004).

One experiment deals with src (Homo sapiens, UniProt P12931). The conditions noted are these: cited from earlier work.
In experiment [1] the test system is proteins in cell lysate of HCT116. Put plainly: Protease digestion assay of HCT116 cell lysate, SDS-PAGE with Coomassie Brilliant Blue staining. It is filed as biochemical, human. The conditions noted are these: UCS15A 0-300 μmol/L, 37° C. for 12 hours, endogenous protease. How it is done:
(§1) By using Dulbecco's modification of Eagle's medium (DMEM) containing 10% fetal bovine serum, human colon tumor cell line HCT116 (ATCC number CCL-247) was cultured on 100 mm diameter dishes for cell culturing in a CO2 incubator at 37° C. under 5% CO2 condition, and proliferated by subculture with division into five portions every 3 days. The culture medium was removed from three HCT116 cell dishes on the third day from the subculture, and cells were washed by addition and successive removal of 10 ml of ice-cooled PBS. To these cells, 10 mL of RSB (10 mmol/L Tris-hydrochloride pH7.6, 10 mmol/L NaCl, 1.5 mmol/L MgCl2) having a low osmotic pressure was added. After the cells were put on ice for 10 minutes to allow expansion, the cells were detached from the dishes and put into 15 mL volume Dounce homogenizer together with the already added RBS. The cells were disrupted by 50 strokes of a pestle. This cell lysate was centrifuged at 4° C., 15,000 rpm for 30 minutes. The obtained supernatant was collected, and divided into ten 1 mL aliquots.
UCS15A was isolated and purified from Streptmyces actinobacterium, according to the descriptions in Japanese Published Unexamined Patent Application No. 58-116686, and a dimethylsulfoxide (DMSO) solution at a concentration of 10 mmol/L was prepared. […]

In a further experiment the target is src and Sam68 (Homo sapiens, UniProt Q07666). The conditions noted are these: cited from earlier work.
Another experiment has as its target T1, Sam68 (Homo sapiens, UniProt Q07666).
T1 construct: endogenous in cells; host or cells: HCT116 (ATCC CCL-247) cell lysate
The experiment in a line: Protease digestion assay with specific detection of Sam68 by Western blotting. It is filed as biochemical. The following applies: HCT116 cell lysate, 37° C. for 12 hours. How it is done:
as §1, with “The obtained supernatant was collected, and divided into ten 1 mL aliquots.” left out
Sam68 in the cell lysate was detected by Western blotting as described below. […]
When the protease digestion assay described in (2) was conducted, a protease inhibitor cocktail (Complete; manufactured by Roche) which can inhibit wide variety of proteases was added along with UCS15A, and the same reaction was proceeded. After the electrophoresis, Sam68 was detected by Western blotting in a same manner to that of (3). […]
In general terms: In western blotting, separated proteins are transferred to a membrane and probed.

The test system of the next experiment is bone resorption. The following applies: cited from earlier work.
For experiment [2], the system named is signal transduction of tyrosine kinase src. The following applies: cited from earlier work.

T1 sequence (Q07666 whole entry): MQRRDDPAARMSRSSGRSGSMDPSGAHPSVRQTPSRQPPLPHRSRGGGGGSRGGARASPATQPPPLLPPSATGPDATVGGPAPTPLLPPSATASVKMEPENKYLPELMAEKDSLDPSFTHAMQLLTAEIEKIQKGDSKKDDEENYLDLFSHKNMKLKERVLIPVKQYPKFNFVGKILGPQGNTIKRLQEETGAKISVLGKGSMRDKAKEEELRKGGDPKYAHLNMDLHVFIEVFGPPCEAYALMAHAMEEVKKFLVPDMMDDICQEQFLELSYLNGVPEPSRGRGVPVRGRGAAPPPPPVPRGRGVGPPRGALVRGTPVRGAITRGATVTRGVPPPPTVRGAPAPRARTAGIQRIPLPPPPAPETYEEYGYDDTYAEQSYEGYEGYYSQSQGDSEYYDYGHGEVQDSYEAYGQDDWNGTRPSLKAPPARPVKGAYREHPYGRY
Chain of src and Sam68 (Q07666 whole entry, species assumed): as the sequence (Q07666 whole entry) above

Take UCS15A: the “inhibition of enzyme activity of src” value on src is on record as “not to inhibit the enzyme activity of src”. In experiment [1], the “change of protein amounts in the cell lysate (Coomassie Brilliant Blue stained gel)” value is listed as “Several proteins, which decreased their amounts with the increase of UCS15A concentration, were observed”. Further, the “inhibition of binding between src and Sam68” value on src and Sam68 was “specifically inhibit the binding between src and Sam68”. The “amount of Sam68 in the cell lysate (Western blotting)” value at Sam68 (UCS15A 0-300 μmol/L, endogenous protease, without protease inhibitor) was “the amount of Sam68 in the cell lysate decreased with the increase of the UCS15A concentration”. The “amount of Sam68 in the cell lysate with protease inhibitor (Western blotting)” value on Sam68 (protease inhibitor cocktail (Complete) added along with UCS15A) is “the decrease of the amount of Sam68 in the cell lysate was inhibited by the addition of a protease inhibitor”. The “inhibitory activity on bone resorption” value with bone resorption is listed as “has an inhibitory activity on bone resorption”. In addition, in experiment [2], the “inhibition of signal transduction of tyrosine kinase src” value is listed as “inhibit the signal transduction of tyrosine kinase src”.
